Values after ≈ are worked out from the molar mass of the structure shown. One block for each molecule: values may come before it. Residues, ends and D or L forms follow the SMILES beside them. *: point of attachment. Cbz = O=C(OCc1ccccc1)*; CH2F = FC*
What was measured:
PKC-δ = assay: Western blotting and subcellular fractionation for PKC-δ in U937 cells; format: cell-based
Protocol: U937 cells were treated with PMA (200 nM) or bortezomib (100 ng/ml) for 2 and 4 hours and cells were harvest for western blotting with antibody against PKC-δ. Same blot was probed with actin antibody as loading controls. […] U937 cells were treated with various concentrations of bortezomib and cells were subjected to subcellular fractionation to isolate mitochondria and cytoplasm. The whole cell lysates and fractions were analyzed with antibody against PKC-δ. […] U937 cells were treated with bortezomib (50 ng/ml) and/or caspase inhibitor BAF (30 μM) for 16 hours. Whole cell lysates were analyzed by western blotting with the PKC-δ antibody. […] Cells were treated with PMA (200 nM) for 6, 9 and 12 hours and subjected to subcellular fractionation. Western blot was probed with the PKC-δ antibody. M: mitochondria; C: cytoplasm.
(§1) U937 cells were grown in RPMI with 10% fetal bovine serum and L-glutamine. Bortezomib was from Millennium Pharmaceutical Corp. (Cambridge, Mass.). Rottlerin was from Sigma (St. Louis, Mo.). PKC-δ monoclonal antibody was from BD Transduction Laboratories (San Jose, Calif.). Boc-D(Ome)-FMK (BAF) and Go6976 were from Calbiochem (San Diego, Calif.). The TUNEL assay (terminal deoxynucleotidyltransferase-mediated dUTP-biotin nick end labeling) was from Roche (Switzerland). Subcellular fractionation and western blotting were performed as described (Chen Jet al. Mol Cancer Ther. 2002;1:961-967).

U937 cells = assay: TUNEL assay of apoptosis in U937 cells; format: cell-based; details: for TUNEL positivity, time course: 50 ng/ml bortezomib
Protocol: […] Cells were harvested and fixed for TUNEL assays. The percentages of the TUNEL positive cells are indicated.
as §1

HeLa cells [1] = assay: Mitochondrial potential by MitoTracker Green and flow cytometry in HeLa cells; format: cell-based; details: 50 μM Z-VAD or 5 μM CsA 30 min, then AD198 16 h
Protocol: Cells were incubated with MitoTracker Green at 37° C. for 20 min followed by flow cytometry analysis. The histogram represents the means±standard deviations from three independent experiments.

PLS3 = PLS3 threonine phosphorylation: Ni-bead pulldown of His-tagged PLS3, Western blot with PT antibody, HeLa cells; format: cell-based; details: HeLa cells, AD198 (5 μM) along with Z-VAD or CsA, 2 h
Protocol: Pulldown of His-tagged proteins from transfected HeLa cells—Transfected HeLa cells were washed with ice-cold phosphate-buffered saline (PBS) and incubated in the lysis buffer (50 mM NaH2PO4, 500 mM NaCl, 20 mM imidazole, 1% Triton X-100, 20 mM 2-mercaptoethanol, pH8.0) for 5 min and sonicated briefly on ice. The lysates were centrifuged at 10,000×g for 10 min at 4° C. The supernatant was saved and the protein concentration was measured with the Bio-Rad protein assay (Bio-Rad Laboratories, Hercules, Calif.) and adjusted to same concentrations for each sample. The supernatants were incubated with Ni-beads on a shaker for 2 h at 4° C. Beads were then pelleted at 800×g for 2 min at 4° C. and washed with ice-cold wash buffer (50 mM NaH2PO4, 500 mM NaCl, 20 mM imidazole, 1% Triton X-100, pH8.0) for five times. Beads were resuspended in SDS sample buffer and analyzed by Western blotting.
Western blot analysis—Equal amounts of protein were analyzed by 10% SDS-PAGE and electrotransferred to Immobilon-P membranes (Millipore Corporation, Bedford, Mass.). Monoclonal PKC-δ, PT, and β-actin and polyclonal VDAC antibodies were used at 1:1,000 and polyclonal PLS3 antibody was used at 1:2,000 for immunoblotting. Secondary anti-mouse or anti-rabbit antibodies conjugated with horseradish peroxidase were used at 1:2,000 and incubated with the membrane for 1 h at room temperature. […]

HeLa cells [2] = assay: Apoptosis by PI staining and flow cytometry (subG1 population) in HeLa cells; format: cell-based; details: HeLa cells, 50 μM Z-VAD or 5 μM CsA 30 min, then AD198 16 h
Protocol: Cell culture, transfection and treatment—HeLa cells were cultured in Dulbecco's modified Eagle's medium (DMEM) containing 10% fetal bovine serum, 2 mM L-glutamine and penicillin (100 units/ml)-streptomycin (100 μg/ml) at 37° C. in a humidified 5% CO2 atmosphere. HeLa cells at 90% confluence were transfected with different mammalian expression vectors using Lipofectamin 2000 according to the manufacturer's protocol (Invitrogen Inc., Carlsbad, Calif.). At 24 h or 48 h after transfection, cells were treated with 1:100 dilution of AD198 that was dissolved in dimethyl sulfoxide (DMSO). For down-regulation of PLS3, HeLa cells at 50% confluence were transfected with siRNA against PLS3 or a scrambled control. At 48 h, cells were treated with AD198 for 16 h and harvested for flow cytometry. The whole cell lysate was extracted for analysis with Western blotting.
Analysis of apoptosis and determination of the transmembrane potential in mitochondria—Cell death was quantified by propidium iodide (PI) staining, followed by flow cytometry (Becton-Dickinson). HeLa cells were fixed in 0.5 ml cold 70% ethanol at −20° C. overnight. Cell pellet were resuspended in 300 μl of PBS containing 0.025 mg/ml PI, 0.05% Triton X-100, 0.1 mg/ml RNase A and incubated at room temperature for 30 min. The DNA content was evaluated by FACScan. For mitochondrial potential analysis, HeLa cells were incubated with MitoTracker Green at 37° C. for 20 min. The cells were collected and washed with PBS and analyzed by FACScan.
Cell culture, transfection, selection and treatment—HeLa cells were cultured in Dulbecco's modified Eagle's medium (DMEM) with 10% fetal bovine serum, 2 mM L-glutamine, 100 units/ml penicillin and 100 μg/ml streptomycin at 37° C. HeLa cells at 90% confluence were transfected with different mammalian expression vectors or siRNA using Lipofectamin 2000 according to the manufacturer's protocol (Invitrogen Inc., Carlsbad, Calif.). At 48 h after transfection, cells were incubated with 5 μM AD198 or dimethyl sulfoxide (DMSO) for 4 h or 16 h. After transfection, cells were selected with 1 mg/ml G418 for 2 wk. After corresponding mock-transfected cells were killed by G418, the concentration of G418 was decreased to 0.5 mg/ml and maintained for another 2 wk. The whole cell lysates or subcellular fractions were extracted for Western blotting analysis (Liu et al. (2003)).
Analysis of apoptosis—HeLa cells were harvested and fixed in 70% ethanol at −20° C. overnight. Cells were then washed with PBS and stained with 0.025 mg/ml propidium iodide (PI), 0.05% Triton X-100, 0.1 mg/ml RNase A for 30 min at room temperature. The DNA content was analyzed by FACScan (Becton-Dickinson), and the subG0/G1 population was used to represent apoptosis.

[3] = monomeric boronic acid; pH range of 2-6.5; cited from earlier work
[4] = U937 cells, 2 and 4 hours, PMA 200 nM, bortezomib 100 ng/ml
[5] = U937 cells, bortezomib 16 hours

Structure (SMILES): COC(=O)CC(NC(=O)OC(C)(C)C)C(=O)CF (stereo not drawn) [BAF, Boc-D(Ome)-FMK]
effect on bortezomib-induced 32 kD PKC-δ band (PKC-δ; bortezomib (50 ng/ml) and BAF (30 μM), 16 hours): disappearance of this 32 kD band

Structure (SMILES): Cn1c2ccccc2c2c3c(c4c5ccccc5n(CCC#N)c4c21)CNC3=O [Go6976]
effect on bortezomib-induced apoptosis (TUNEL) (U937 cells; Go6976 (200 nM) with bortezomib, 16 hours): could not prevent bortezomib-induced apoptosis

Structure (SMILES): CCCCCCCCCCCCCC(=O)O[C@@H]1[C@@H](C)[C@@]2(O)[C@@H](C=C(CO)C[C@]3(O)C(=O)C(C)=C[C@@H]23)[C@@H]2C(C)(C)[C@]12OC(C)=O [PMA]
PKC-δ protein level (PKC-δ; [4]): down-regulated PKC-δ
PKC-δ localization after subcellular fractionation (PKC-δ; U937 cells, PMA (200 nM) 6, 9 and 12 hours): full-length PKC-δ and its degradation products in mitochondria

Structure (SMILES): CC(NC(=O)C(NC(=O)OCc1ccccc1)C(C)C)C(=O)NC(CC(=O)O)C(=O)CF (stereo not drawn) [Z-VAD] (Cbz-Val-Ala-Asp-CH2F; configuration not given here)
effect on AD198-induced mitochondrial permeability transition / loss of mitochondrial potential (HeLa cells [1]): could not block
effect on AD198-induced threonine phosphorylation of PLS3 (PLS3): not affected
effect on AD198-induced apoptosis (HeLa cells [2]): suppressed

IC50 (U937 cells; Homo sapiens, U-937, U937 cells): 0.01 to 0.05 mg/L (≈ 0.026 to 0.13 µM)
Structure (SMILES): CC(C)C[C@H](NC(=O)[C@H](Cc1ccccc1)NC(=O)c1cnccn1)B(O)O [bortezomib, [(1R)-3-methyl-1-[[(2S)-1-oxo-3-phenyl-2-[(pyrazinylcarbonyl)amino]propyl]amino]butyl] boronic acid]
PKC-δ protein level (PKC-δ; [4]): induced an increase of PKC-δ
32 kD PKC-δ fragment (PKC-δ; [5]): new band at 32 kD
PKC-δ protein level (PKC-δ; [5]): the level of PKC-δ decreased
TUNEL positivity, time course (U937 cells; 6 hours): did not become TUNEL positive
TUNEL positivity, time course (U937 cells; 16 h): strongly positive
concentration at which cells became TUNEL positive (U937 cells; U937 cells): 5 ng/mL
apoptosis by TUNEL assays (U937 cells; bortezomib 5 ng/ml, 16 hours): 8.02%
apoptosis by TUNEL assays (U937 cells; bortezomib 10 ng/ml, 16 hours): 19.85%
apoptosis by TUNEL assays (U937 cells; bortezomib 50 ng/ml, 16 hours): 76.07%
solubility in water [3]: 3.3 to 3.8 mg/mL

Structure (SMILES): CC(=O)c1c(O)c(C)c(O)c(Cc2c(O)c3c(c(C(=O)/C=C/c4ccccc4)c2O)OC(C)(C)C=C3)c1O [rottlerin]
TUNEL positive cells with addition of rottlerin (U937 cells; bortezomib 5 ng/ml + rottlerin (10 μM), 16 hours): 4.35%
TUNEL positive cells with addition of rottlerin (U937 cells; bortezomib 10 ng/ml + rottlerin (10 μM), 16 hours): 8.55%
TUNEL positive cells with addition of rottlerin (U937 cells; bortezomib 50 ng/ml + rottlerin (10 μM), 16 hours): 33.07%
